Test results as given in DBAASP.
In brackets after ≈: the same amount, converted by molar mass.

What was measured:
Test in all cases: ≥ marks a high value that may be exact or a test limit, other limits are often not marked, values filed in µg/mL are converted to µM
[1] = test system: Pseudomonas aeruginosa KCTC 1637
[2] = test system: Escherichia coli KCTC 1682
[3] = test system: Staphylococcus aureus KCTC 1621
Enterococcus faecium = test system: Enterococcus faecium
[4] = test system: Bacillus subtilis KCTC 3068
Enterococcus faecalis VR = test system: Enterococcus faecalis VR
[5] = test system: Staphylococcus epidermidis KCTC 1917
Staphylococcus aureus MR = test system: Staphylococcus aureus MR
[6] = test system: Salmonella typhimurium KCTC 1926
Enterococcus faecium VR = test system: Enterococcus faecium VR
Enterococcus faecalis = test system: Enterococcus faecalis
[7] = test system: Candida parapsilosis ATCC 22019
[8] = test system: Bacillus subtilis ATCC 6633
[9] = test system: Klebsiella pneumoniae ATCC 27736
[10] = test system: Pseudomonas aeruginosa ATCC BAA-427
[11] = test system: Staphylococcus aureus ATCC 29213
Cryptococcus neoformans = test system: Cryptococcus neoformans
[12] = test system: Staphylococcus aureus ATCC 700699
[13] = test system: Staphylococcus aureus ATCC 25923
[14] = test system: Staphylococcus aureus ATCC 33592
[15] = test system: Escherichia coli ATCC 9637
Sporothrix schenckii = test system: Sporothrix schenckii
[16] = test system: Candida albicans ATCC 10231
[17] = test system: Staphylococcus aureus ATCC 700698
[18] = test system: Staphylococcus aureus ATCC BAA-44
[19] = test system: Escherichia coli KpC+002101123
[20] = test system: Proteus mirabilis ATCC 25933
[21] = test system: Escherichia coli ATCC 8739
[22] = test system: Escherichia coli KpC+001812446
[23] = test system: Klebsiella pneumoniae ATCC 13885
[24] = test system: Salmonella enterica subsp. enterica serovar Typhimurium ATCC 14028
[25] = test system: Streptococcus pyogenes ATCC 19615
[26] = test system: Staphylococcus aureus ATCC 33591
[27] = test system: Klebsiella pneumoniae KpC+001825971
[28] = test system: Enterococcus faecalis ATCC 12953
[29] = test system: Pseudomonas aeruginosa ATCC 15442
[30] = test system: Escherichia coli ATCC 25922
[31] = test system: Candida glabrata ATCC 15126
[32] = test system: Enterococcus faecalis PCM 2673
[33] = test system: Escherichia coli ATCC 23506
[34] = test system: Klebsiella pneumoniae ATCC 700603
[35] = test system: Streptococcus pneumoniae ATCC 49619
[36] = test system: Pseudomonas aeruginosa ATCC 9027
[37] = test system: Staphylococcus aureus ATCC 9144
[38] = test system: Aspergillus niger ATCC 16404
Escherichia coli C25 = test system: Escherichia coli C25

CC[C@H](C)[C@H](NC(=O)[C@H](CC(C)C)NC(=O)[C@H](CS)NC(=O)[C@H](Cc1cnc[nH]1)NC(=O)[C@H](C)NC(=O)[C@H](C)N)C(=O)NCC(=O)N[C@@H](CCCN=C(N)N)C(=O)N[C@@H](CCCCN)C(N)=O [AAHCLIGRK]
MIC [1]: 15 µM
MIC [2]: 15 µM
MIC [3]: 15 µM
MIC (Enterococcus faecium): 30 µM
MIC [4]: 7.5 µM
MIC (Enterococcus faecalis VR): 30 µM
MIC [5]: 7.5 µM
MIC (Staphylococcus aureus MR): 15 µM
MIC [6]: 15 µM
MIC (Enterococcus faecium VR): 7.5 µM
MIC (Enterococcus faecalis): 30 µM

CC[C@H](C)[C@H](NC(=O)[C@H](C)NC(=O)CNC(=O)[C@H](CCCCN)NC(=O)[C@@H](NC(=O)[C@H](CC(C)C)NC(=O)[C@H](Cc1c[nH]c2ccccc12)NC(=O)CNC(=O)[C@H](Cc1ccccc1)NC(=O)[C@@H](N)Cc1ccccc1)[C@@H](C)CC)C(=O)N[C@@H](Cc1cnc[nH]1)C(=O)N[C@@H](C)C(=O)N1CCC[C@H]1C(=O)N[C@@H](CCCCN)C(=O)N[C@@H](C)C(=O)N[C@H](C(=O)N[C@@H](Cc1cnc[nH]1)C(=O)N1CCC[C@H]1C(=O)N[C@@H](CC(C)C)C(=O)N[C@H](C(=O)N[C@@H](Cc1cnc[nH]1)C(=O)N[C@@H](CCCN=C(N)N)C(=O)N[C@@H](CCCN=C(N)N)C(=O)N[C@@H](CCCN=C(N)N)C(=O)N[C@@H](Cc1cnc[nH]1)C(=O)O)[C@@H](C)CC)[C@@H](C)CC [FFGWLIKGAIHAPKAIHPLIHRRRH]
MIC [7]: 30 µM (≈ 89.2 µg/mL)
MIC [8]: 3 µM (≈ 8.92 µg/mL)
MIC [9]: 27.2 µM (≈ 80.9 µg/mL)
MIC [10]: 13.6 µM (≈ 40.4 µg/mL)
MIC [11]: 3 µM (≈ 8.92 µg/mL)
MIC (Cryptococcus neoformans): 30 µM (≈ 89.2 µg/mL)
MIC [12]: 3 µM (≈ 8.92 µg/mL)
MIC [13]: 3 µM (≈ 8.92 µg/mL)
MIC [14]: 1.6 µM (≈ 4.76 µg/mL)
MIC [15]: 6.8 µM (≈ 20.2 µg/mL)
MIC (Sporothrix schenckii): 30 µM (≈ 89.2 µg/mL)
MIC [16]: > 30 µM
MIC [17]: 3 µM (≈ 8.92 µg/mL)
MIC [18]: 3 µM (≈ 8.92 µg/mL)

CC[C@H](C)[C@H](NC(=O)[C@H](CCCCN)NC(=O)CNC(=O)[C@H](CC(C)C)NC(=O)[C@H](Cc1ccccc1)NC(=O)[C@H](CCC(N)=O)NC(=O)[C@H](Cc1ccccc1)NC(=O)[C@@H](NC(=O)[C@@H](NC(=O)[C@@H](NC(=O)[C@@H]1CCCN1C(=O)[C@H](CC(C)C)NC(=O)[C@@H](N)Cc1ccccc1)[C@@H](C)CC)[C@@H](C)CC)C(C)C)C(=O)N[C@H](C(=O)N[C@@H](Cc1cnc[nH]1)C(=O)N[C@@H](Cc1cnc[nH]1)C(=O)N[C@H](C(=O)NCC(=O)N[C@@H](CC(N)=O)C(=O)N[C@@H](Cc1ccccc1)C(=O)N[C@H](C(=O)N[C@@H](Cc1cnc[nH]1)C(=O)NCC(=O)N[C@@H](Cc1ccccc1)C(=O)N[C@@H](CO)C(=O)N[C@@H](Cc1cnc[nH]1)C(=O)N[C@H](C(=O)N[C@@H](Cc1ccccc1)C(N)=O)C(C)C)C(C)C)C(C)C)[C@@H](C)CC [FLPIIVFQFLGKIIHHVGNFVHGFSHVF]
MIC [8]: 1.5 µM (≈ 4.87 µg/mL)
MIC [19]: 6 µM (≈ 19.5 µg/mL)
MIC [20]: 6 µM (≈ 19.5 µg/mL)
MIC [11]: 24 µM (≈ 78 µg/mL)
MIC [21]: 12 µM (≈ 39 µg/mL)
MIC [22]: 6 µM (≈ 19.5 µg/mL)
MIC [23]: 3 µM (≈ 9.75 µg/mL)
MIC [24]: 3 µM (≈ 9.75 µg/mL)
MIC [25]: 6 µM (≈ 19.5 µg/mL)
MIC [26]: 6 µM (≈ 19.5 µg/mL)
MIC [27]: 3 µM (≈ 9.75 µg/mL)
MIC [28]: 1.5 µM (≈ 4.87 µg/mL)
MIC [29]: 3 µM (≈ 9.75 µg/mL)

CC[C@H](C)[C@H](NC(=O)CNC(=O)[C@H](C)NC(=O)[C@@H](NC(=O)[C@H](CC(C)C)NC(=O)[C@H](CCCCN)NC(=O)[C@@H](NC(=O)[C@@H](N)CC(C)C)C(C)C)C(C)C)C(=O)N[C@@H](CCCCN)C(=O)N[C@@H](CCCCN)C(=O)N[C@@H](Cc1ccccc1)C(=O)N[C@@H](CC(C)C)C(=O)N[C@@H](CCCCN)C(=O)N[C@@H](Cc1c[nH]c2ccccc12)C(=O)N[C@@H](CCCCN)C(N)=O [LVKLVAGIKKFLKWK]
MIC [30]: 72.3 µM (≈ 128 µg/mL)
MIC [31]: ≥ 145 µM
MIC [32]: ≥ 36.1 µM
MIC [33]: ≥ 36.1 µM
MIC [34]: 1.13 µM (≈ 2 µg/mL)
MIC [35]: ≥ 72.3 µM
MIC [36]: 4.52 µM (≈ 8 µg/mL)
MIC [13]: 72.3 µM (≈ 128 µg/mL)
MIC [37]: ≥ 36.1 µM
MIC [38]: ≥ 145 µM
MIC [16]: 145 µM (≈ 256 µg/mL)

CC[C@H](C)[C@H](NC(=O)[C@H](Cc1ccc(O)cc1)NC(=O)[C@H](CCCN=C(N)N)NC(=O)[C@H](CCCN=C(N)N)NC(=O)[C@@H](N)CCCN=C(N)N)C(=O)NCC(=O)N[C@@H](CCCN=C(N)N)C(=O)N[C@@H](Cc1ccc(O)cc1)C(=O)N[C@H](C(=O)N[C@@H](CCCN=C(N)N)C(=O)N[C@@H](Cc1ccccc1)C(=O)N[C@@H](Cc1c[nH]c2ccccc12)C(=O)N[C@@H](CCCCN)C(N)=O)C(C)C [RRRYIGRYVRFWK]
MIC [13]: 8.4 µM (≈ 15.6 µg/mL)
MIC (Escherichia coli C25): 2.1 µM (≈ 3.9 µg/mL)
